We go through one molecule from US10369123B2, “Perk activator for the treatment of neurodegenerative diseases” (DEUTSCHES ZENTRUM FÜR NEURODEGENERATIVE ERKRANKUNGEN E.V. …, priority 2014, dated 2019).

In test [1] the test system is 4R-tau and 3R-tau isoforms. Briefly: Western blot of 3R-/4R-tau isoforms, annonacin model. The class given is cell-based, human. To be noted: annonacin 25 nM + PERK activator, 48 h. The protocol: Nunc™ Nunclon™ Delta 6-well (for protein and mRNA) or 48-well (for cell assays) plates (Thermo Fisher Scientific, Waltham, Mass., USA) were coated with 100 μg/ml poly-L-lysine (Sigma-Aldrich, St. Louis, Mo., USA) and 5 μg/ml fibronectin (Sigma-Aldrich). LUHMES (Lund Human Mesencephalic) cells, derived from human embryonic ventral mesencephalic cells by conditional immortalization (Tet-off v-myc over-expression) were seeded out in a concentration of 130,000 cells/cm^2 to achieve a confluence of 50%. They were then differentiated for 8 days in a medium of DMEM/F12 (Sigma-Aldrich), 1 μg/ml tetracycline, […] and 490 μg/ml dbcAMP into post-mitotic neurons with a dopaminergic phenotype (Lotharius et al. 2005). […]
Protein was extracted by scraping the cells from the culture plate with Mammalian Protein Extraction Reagent (M-PER, Thermo Fisher Scientific) and 1× cOmplete Protease Inhibitor Cocktail Tablets (Hoffmann-La Roche, Basel, Switzerland) and 1× PhosSTOP Phosphatase Inhibitor Cocktail Tablets (Hoffmann-La Roche). […] Protein concentrations were determined using the BCA kit (Thermo Fisher Scientific) by heating the samples at 60° C. for 30 min and measuring the absorption on the NanoDrop 2000c Spectrophotometer (Thermo Fisher Scientific). […]
A general note: Immunoblotting shows a protein as a band on a membrane.

The target in test [2] is T1, PERK (Homo sapiens, UniProt Q9NZJ5).
T1 sequence (Q9NZJ5 30-1116): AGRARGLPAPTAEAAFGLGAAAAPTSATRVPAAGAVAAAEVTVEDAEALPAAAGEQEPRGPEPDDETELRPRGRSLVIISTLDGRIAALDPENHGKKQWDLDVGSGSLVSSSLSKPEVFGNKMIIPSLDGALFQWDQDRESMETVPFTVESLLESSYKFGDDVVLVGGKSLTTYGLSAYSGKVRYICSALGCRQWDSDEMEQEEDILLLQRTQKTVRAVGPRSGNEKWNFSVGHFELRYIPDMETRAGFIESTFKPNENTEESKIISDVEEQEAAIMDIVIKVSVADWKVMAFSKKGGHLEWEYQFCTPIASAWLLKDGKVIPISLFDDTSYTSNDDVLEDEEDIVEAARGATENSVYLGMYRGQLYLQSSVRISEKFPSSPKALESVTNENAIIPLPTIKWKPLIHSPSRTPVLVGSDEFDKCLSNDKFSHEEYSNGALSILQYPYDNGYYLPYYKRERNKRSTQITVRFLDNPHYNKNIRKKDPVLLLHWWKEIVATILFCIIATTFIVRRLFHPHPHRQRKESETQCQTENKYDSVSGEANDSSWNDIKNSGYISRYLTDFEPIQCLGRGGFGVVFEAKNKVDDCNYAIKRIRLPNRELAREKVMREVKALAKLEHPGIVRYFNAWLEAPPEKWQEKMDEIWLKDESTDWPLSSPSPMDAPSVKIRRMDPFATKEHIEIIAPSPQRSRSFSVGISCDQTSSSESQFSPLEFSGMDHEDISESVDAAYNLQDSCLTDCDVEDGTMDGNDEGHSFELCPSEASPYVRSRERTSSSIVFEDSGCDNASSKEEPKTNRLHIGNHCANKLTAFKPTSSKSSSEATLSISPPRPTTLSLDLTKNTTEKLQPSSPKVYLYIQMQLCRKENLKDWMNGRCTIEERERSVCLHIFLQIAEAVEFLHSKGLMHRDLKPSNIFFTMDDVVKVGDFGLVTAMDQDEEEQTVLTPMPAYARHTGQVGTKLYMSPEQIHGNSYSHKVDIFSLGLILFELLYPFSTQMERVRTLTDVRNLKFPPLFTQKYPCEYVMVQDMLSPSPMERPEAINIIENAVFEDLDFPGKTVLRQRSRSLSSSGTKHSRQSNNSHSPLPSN
To be noted: Stockwell et al. 2012; cited from earlier work.

Each structure is given as a SMILES string.

In the case of `CCN(CC)CCC(=O)N1N=C(c2c(-c3ccccc3)c3cc(Br)ccc3[nH]c2=O)CC1c1ccc(Br)cc1` (stereo not drawn) [CCT020312, 6-bromo-3-[5-(4-bromo-phenyl)-1-(3-diethylamino-propionyl)-4,5-dihydro-1H-pyrazol-3-yl]-4-phenyl-1H-quinolin-2-one], the 4R-tau protein amount entry in test [1] is “reduced”. In test [2], the EIF2A phosphorylation result is “increase” and the “other arms of the UPR” value is listed as “remained unaffected”.
